Test results from patent US11679168B2, “Caspase-3-triggered molecular self-assembling PET probes and uses thereof” (The Board of Trustees of the Leland Stanford Junior …, priority 2018, dated 2023).

Key:
H460 cells = assay: Radiotracer uptake in H460 cells; assay type: cell-based, human
Description: Temporal changes in cell-associated radioactivity in drug-treated cells or vehicle cells were measured with [18F]-C-SNAT4. Data are means±SD (n=3 per group). *, P<0.05; **, P<0.01; ***, P<0.005; *****, P<0.0001.
FIG. 22 illustrates that a mixture strategy enhances [^18F]-C-SNAT4 uptake in radiation (a single dose at 10 Gy) treated cells and vehicle human non-small cell lung cancer H460 cells. 40 μCi of mixture tracer [^18F]/[^19F]-C-SNAT4 (at ratio of 1:80 or 1:200) or 40 μCi [^18F]-C-SNAT4 were incubated in cells for 1 hour at 24 h post-IR treatment and radioactivity of [^18F] was measured using γ-counter. Data are means±SD (n=3 each group). *, P<0.05; **, P<0.01; ***, P<0.001.
Radiotracer uptake in cells: H460 and H1299 cells (2×10^5) were plated in 6-well cell culture plates over night before [^18F]-C-SNAT4 uptake analysis. […] After 24 h treatment, fresh, prewarmed RPMI Medium 1640 containing 1.48 MBq (40 μCi) [^18F]-C-SNAT4 was added to individual wells (1 ml/well; 13.3 pmol). At post 10, 30, 60 min, medium was removed, cells were lifted by trypsinization, and washed three-times with cold PBS. Radioactivity contained in cell pellets was measured using a gamma counter, with counts normalized to total protein concentration as determined by cell digestion using RIPA buffer followed by protein quantitation by the Bradford method. The final radiotracer [^18F]-C-SNAT4 uptake concentration was expressed as μM of % uptake/mg protein. Results were normalized to a vehicle control (PBS for [^18F]-C-SNAT4 experiments at different time-points) which was washed.

[1] = Ex vivo biodistribution in H460 tumor-bearing mice; conditions: 2 h post injection
Description: FIG. 20 illustrates biodistribution of [^18F]-C-SNAT4 in H460 tumor-bearing female nude mice. Mice were administered approximately 200 μCi [^18F]-C-SNAT4, animal were exsanguinated through the left ventricle and indicated tissues were excised at 2 hours post-injection in mice bearing naïve-tumor (black) or drug-treated tumor (gray). Data represent the mean±S.D. (n=4 animals per groups)
Biodistribution study: H460 or H1299 tumor-bearing female nude mice were administered approximately 7.4 MBq of [^18F]-C-SNAT4 via the tail vein (n=4-5 per group). Mice were maintained under anesthesia and warmed to 37° C. to replicate imaging conditions. At 90 min after [^18F]-C-SNAT4 injection, animals were sacrificed by exsanguination via cardiac puncture. For all animals, tumors were excised immediately upon death, weighed using pre-weighted tubes, and rapidly placed in 10% formalin (Fisher Scientific) for fixation. Tumor and tissue decay-corrected radioactivity was subsequently determined using a Cobra II Auto-Gamma counter (Packard Biosciences Co, UK.) Predefined 1.85 MBq (50 μCi) standards (50 μl) were also counter for data normalization to injected dose. Data were expressed as percent injected dose per gram of tissue (% ID/g).

[2] = Stability of [18F]-C-SNAT4 in human serum (HPLC); assay type: in vitro ADME; conditions: 37° C., over 2 h incubation
Description: FIG. 10 illustrates serum stability of [^18F]-C-SNAT4 in human serum. [^18F]-C-SNAT4 was incubated in serum at 37° C. and analyzed by HPLC.
At 24 h post treatment, mixture tracer of [^19F]-C-SNAT4 was injected with [^18F]-C-SNAT4 (mixture ratio at 1:200) through the tail vein for PET imaging (FIG. 24A-24C). For treated animal, tumor uptake of mixture tracer [^18F]/[^19F]-C-SNAT4 and [^18F]-C-SNAT4 were 2.9±0.3% ID/cc and 1.7±0.1% ID/cc, respectively at 85 min post injection. There was 1.7-fold increase of radioactivity in the mixture-treated mice. Overall, the uptake of [^18F]-C-SNAT4 was increased both in radiation and drug-treated tumors. In contrast, the tumor uptake of [^18F]/[^19F]-C-SNAT4 (ratio at 1:200) and [^18F]/[^19F]-C-SNAT4 (ratio at 1:80) in untreated tumor was 0.5±0.2% ID/cc and 0.3±0.2% ID/cc, respectively at 85 min after injection (FIG. 25A-25C), followed by a rapid signal decay back to baseline within a few minutes. There were no changes compared to the uptake of [^18F]-C-SNAT4 (0.4±0.1% ID/cc). […] The sample was centrifuged at 13,400 g for 10 min and […] of the resultant supernatant was diluted with […] of water and analyzed on HPLC. % intact tracer was calculated as %=(peak area for tracer/total peak area on the HPLC chromatogram)×100.

For `CCSSCC(NC(=O)C(CC(=O)O)NC(=O)C(NC(=O)C(CCC(=O)O)NC(=O)C(CC(=O)O)NC(C)=O)C(C)C)C(=O)NCC(=O)NC(Cc1cn(CCOCCOCCOCC[18F])nn1)C(=O)NCc1ccc(C(=O)NCCCOc2cnc(C#N)nc2)cc1` (stereo not drawn) [[^18F]-C-SNAT4], the “uptake of high dose-treated cells relative to control cells” value (H460 cells; H460, 10 min post incubation) was 5.8 fold, the “uptake of low dose-treated cells relative to control cells” value (H460 cells; H460, 60 min post incubation) was 2.4 fold and the cell uptake (H460 cells; IR-treated (10 Gy, 24 h) H460, hot tracer only, 1 h) was 3.9±0.4 % uptake/mg protein. For the same compound, the cell uptake (H460 cells; cisplatin high dose (13.5 μM, 24 h) treated H460, 10 min post incubation) was 2.3 % radioactivity/mg protein, the cell uptake (H460 cells; cisplatin low dose (4.5 μM, 24 h) treated H460, 10 min) was 0.7±0.1 % uptake/mg protein and the cell uptake (H460 cells; cisplatin low dose (4.5 μM, 24 h) treated H460, 60 min) was 1.45±0.11 % radioactivity/mg protein. For the same compound, the cell uptake (H460 cells; control H460 cells of high dose experiment, 10 min post incubation) was 0.4±0.1 % uptake/mg protein, the cell uptake (H460 cells; non-treated H460, hot tracer only) was 2.8±0.3 % uptake/mg protein and the cell uptake (H460 cells; untreated H460, 10 min) was 0.5±0.1 % radioactivity/mg protein. For the same compound, the cell uptake (H460 cells; untreated H460, 60 min) was 0.4 % uptake/mg protein, the clearance route [1] was “predominantly renal clearance” and the “percentage of [18F]-C-SNAT4 remained” value [2] was 77.5%.
